# Earlier results in patent US20180200206A1, “[…] METHODS AND COMPOSITIONS FOR TREATING BREAST DISORDERS” (ATOSSA GENETICS INC., priority 2015, published 2018).
# Target: estrogen receptor (Homo sapiens, UniProt P03372)
# Details: more potent than tamoxifen; stated as known in the art
# Chain of estrogen receptor (P03372 whole entry): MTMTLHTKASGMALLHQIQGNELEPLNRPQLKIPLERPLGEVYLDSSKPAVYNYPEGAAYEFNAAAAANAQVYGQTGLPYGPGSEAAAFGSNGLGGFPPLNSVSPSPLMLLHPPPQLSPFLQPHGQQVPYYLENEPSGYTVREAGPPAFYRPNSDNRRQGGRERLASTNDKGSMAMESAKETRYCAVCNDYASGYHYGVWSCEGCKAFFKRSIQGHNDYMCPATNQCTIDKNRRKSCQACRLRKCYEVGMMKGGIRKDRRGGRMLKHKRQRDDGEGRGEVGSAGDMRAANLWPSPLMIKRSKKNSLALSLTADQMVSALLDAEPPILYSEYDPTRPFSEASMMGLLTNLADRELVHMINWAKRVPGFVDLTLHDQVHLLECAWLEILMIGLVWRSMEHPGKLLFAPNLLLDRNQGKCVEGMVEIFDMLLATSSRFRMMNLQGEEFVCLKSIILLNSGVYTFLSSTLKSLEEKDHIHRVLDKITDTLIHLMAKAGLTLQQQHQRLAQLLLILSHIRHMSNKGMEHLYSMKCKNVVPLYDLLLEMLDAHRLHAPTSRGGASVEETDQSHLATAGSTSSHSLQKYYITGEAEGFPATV
substance,measurement,value
4-hydroxytamoxifen,potency relative to tamoxifen,100 times
